Experimental data reported in US4818761A, “2-(4-pyridylaminomethyl)-benzimidazole derivatives having antiviral activity” (priority 1986, dated 1989).
≈ marks a conversion by molar mass, not a printed value.

Assays:
[1] = system: enterovirus type 70 (EV70); assay: Inhibition of EV70 plaque formation in LLC-MK2 cells; type: cell-based; details: for CI EV70 (C)/(A): CI = CD50 (LLC-MK2)/IC50 (plaque); for IC50: Enterovirus D, plaque reduction, LLC-MK2 cells, 33° C.
[2] = system: poliovirus type 2 (Polio2); assay: microbe, parasite or virus in culture; type: cell-based; details: for IC50: Enterovirus C, LLC-MK2, read-out: IC50 Polio2
[3] = system: coxsackievirus type B4 (CB4); assay: Inhibition of CB4 plaque formation in LLC-MK2 cells; type: cell-based; details: for CI CB4 (C)/(A): CI = CD50 (LLC-MK2)/IC50 (plaque); for IC50: Coxsackievirus, plaque reduction, LLC-MK2 cells, 37° C.
[4] = system: rhinovirus type 14 (HRV14); assay: Inhibition of HRV14 plaque formation in HeLa cells; type: cell-based; details: for CI HRV14 (D)/(B): CI = CD50 (HeLa)/IC50 (plaque); for IC50: Enterovirus, HRV14, plaque reduction, HeLa cells, 33° C.
in vitro [5] = details: monkey, llc-mk2 cells
in vitro [6] = details: human, hela cells
[7] = system: enterovirus type 70 (EV70); assay: Inhibition of EV70 cytopathogenic effect (CPE) in LLC-MK2 cells; type: cell-based; details: for IC50: Enterovirus D, * Virus CPE inhibition assay, LLC-MK2 cells, 33° C.
[8] = system: coxsackievirus type B4 (CB4); assay: Inhibition of CB4 cytopathogenic effect (CPE) in LLC-MK2 cells; type: cell-based; details: for CI CB4 (C)/(A): CI = CD50 (LLC-MK2)/IC50 (virus CPE); for IC50: Coxsackievirus, * Virus CPE inhibition assay, LLC-MK2 cells, 37° C.

Row | SMILES | CI EV70 (C)/(A) [1] | IC50 [1] [µg/mL] | CI CB4 (C)/(A) [3] | IC50 [3] [µg/mL] | CC50 (in vitro [5]) [µg/mL] | IC50 [7] [µg/mL] | IC50 [8] [µg/mL] | other results
1 | Brc1ccc2[nH]c(CNc3ccncc3)nc2c1 [I, 2-(4-pyridylaminomethyl)-5-(6)-bromobenzimidazole] | 101 | 3.1 (≈ 10.2 µM) | 17 | 18 (≈ 59.4 µM) | 312 (≈ 1030 µM) | – | – | IC50 [2]: > 25 µg/mL; CI HRV14 (D)/(B) [4]: 3; IC50 [4]: 5.8 µg/mL (≈ 19.1 µM); CC50 (in vitro [6]): 17.8 µg/mL (≈ 58.7 µM)
2 | Ic1ccc2[nH]c(CNc3ccncc3)nc2c1 [III] | > 15 | 6.5 (≈ 18.6 µM) | > 3 | 33 (≈ 94.2 µM) | > 100 | – | – | IC50 [2]: > 100 µg/mL; IC50 [4]: 6.2 µg/mL (≈ 17.7 µM)
3 | Fc1ccc2[nH]c(CNc3ccncc3)nc2c1 [II] | 126 | 1.4 (≈ 5.78 µM) | 29 | 6 (≈ 24.8 µM) | 177 (≈ 730 µM) | – | – | IC50 [2]: > 25 µg/mL; CI HRV14 (D)/(B) [4]: 4; IC50 [4]: 14.5 µg/mL (≈ 59.9 µM); CC50 (in vitro [6]): 56.2 µg/mL (≈ 232 µM)
4 | c1ccc(-c2ccc3[nH]c(CNc4ccncc4)nc3c2)cc1 [IX] | – | – | – | – | > 100 | > 100 | – | –
5 | CC(C)CCn1c(CNc2ccncc2)nc2ccccc21.Cl [L, 1-isoamyl-2-(4-pyridylaminomethyl)benzimidazole hydrochloride] | 1,010 | 1.4 | 4,159 | 0.34 | 1410 | – | – | CI Polio2 (C)/(A) ([2]; CI = CD50 (LLC-MK2)/IC50 (plaque)): 329; IC50 [2]: 4.3 µg/mL; IC50 [4]: > 100 µg/mL
6 | OCCCCn1c(CNc2ccncc2)nc2ccccc21 [LII] | – | – | – | – | > 100 | > 100 | 17.8 (≈ 60.1 µM) | CI CB4 (C)/(A) [8]: > 6
7 | OCCCn1c(CNc2ccncc2)nc2ccccc21 [LI] | – | – | – | – | > 1000 | > 100 | 56.2 (≈ 199 µM) | IC50 [4]: > 100 µg/mL; CI CB4 (C)/(A) [8]: 18
8 | c1ccc(CCCn2c(CNc3ccncc3)nc3ccccc32)cc1 [LVI] | – | – | – | – | > 100 | > 100 | > 100 | –
9 | Cc1cccc(-n2c(CNc3ccncc3)nc3ccccc32)c1 [LXIII] | > 18 | 5.6 (≈ 17.8 µM) | – | – | > 100 | – | 5.6 (≈ 17.8 µM) | CI CB4 (C)/(A) [8]: > 18
10 | Cc1ccccc1-n1c(CNc2ccncc2)nc2ccccc21 [LXII] | – | – | – | – | > 100 | > 100 | > 100 | –
11 | FC(F)(F)c1ccc(-n2c(CNc3ccncc3)nc3ccccc32)cc1 [LXIV] | – | – | – | – | > 100 | > 100 | 5.6 (≈ 15.2 µM) | CI CB4 (C)/(A) [8]: > 18
12 | Clc1ccc(-n2c(CNc3ccncc3)nc3ccccc32)cc1Cl [LXIX] | – | – | – | – | > 100 | 5.6 (≈ 15.2 µM) | 5.6 (≈ 15.2 µM) | CI EV70 (C)/(A) ([7]; CI = CD50 (LLC-MK2)/IC50 (virus CPE)): > 18; CI CB4 (C)/(A) [8]: > 18
13 | Ic1ccc(-n2c(CNc3ccncc3)nc3ccccc32)cc1 [LXI] | – | – | – | – | > 100 | > 100 | > 100 | –
14 | COc1ccc(-n2c(CNc3ccncc3)nc3ccccc32)cc1 [LXVIII] | – | – | – | – | > 100 | > 100 | 5.6 (≈ 16.9 µM) | CI CB4 (C)/(A) [8]: > 18
15 | COc1ccccc1-n1c(CNc2ccncc2)nc2ccccc21 [LXVII] | – | – | – | – | – | > 100 | > 100 | –
16 | CCc1ccc(-n2c(CNc3ccncc3)nc3ccccc32)cc1 [LXVI] | – | > 100 | > 37 | 2.7 (≈ 8.22 µM) | > 100 | – | – | IC50 [2]: > 100 µg/mL; IC50 [4]: > 100 µg/mL
17 | Cc1cc(C)c(-n2c(CNc3ccncc3)nc3ccccc32)c(C)c1 [LXXII] | – | – | – | – | > 100 | > 100 | > 100 | –
18 | CC(C)(C)c1ccc2[nH]c(CNc3ccncc3)nc2c1 [VIII] | – | – | – | – | > 100 | > 100 | – | –
19 | CCCCc1ccc2[nH]c(CNc3ccncc3)nc2c1 [VII] | 3 | 17.8 (≈ 63.5 µM) | – | – | 56.2 (≈ 200 µM) | – | – | –
20 | CCCc1ccc2[nH]c(CNc3ccncc3)nc2c1 [V] | 93 | 3.8 (≈ 14.3 µM) | – | > 100 | 354 (≈ 1330 µM) | – | – | IC50 [2]: > 100 µg/mL
21 | CC(C)n1c(CNc2ccncc2)nc2ccccc21.Cl [XIII, 1-isopropyl-2-(4-pyridylaminomethyl)benzimidazole hydrochloride] | – | – | > 1 | 85 | > 100 | > 100 | – | –
22 | CC=Cn1c(CNc2ccncc2)nc2ccccc21 [XIV] | – | – | > 36 | 56.2 (≈ 213 µM) | > 2000 | > 100 | – | –
